Source: patent US7307063B2, “Melanocortin metallopeptides for treatment of sexual dysfunction” (Palatin Technologies, Inc., priority 2001, dated 2007)
“And” between values parts separate entries of the source, which are not always exact repeats. Equal entries are not always repeated. Non-standard residues stand in square brackets, D forms with d. No end group written: not given here. *: point of attachment. Tiq = 1,2,3,4-tetrahydroisoquinoline-1-carboxylic acid; Acetyl(2-naphthyl) = O=C(Cc1ccc2ccccc2c1)*; 1Nal = N[C@@H](Cc1cccc2ccccc12)C(=O)O; dIgl = N[C@@H](C(=O)O)C1Cc2ccccc2C1; Igl = N[C@H](C(=O)O)C1Cc2ccccc2C1; Ac6c = NC1(C(=O)O)CCCCC1; Nle = CCCC[C@H](N)C(=O)O; Ac5c = NC1(C(=O)O)CCCC1; Ahp = NCCCCCCC(=O)O

Assays:
MC1-R = target: T1, MC1-R (Mus musculus, UniProt Q01727); assay: Competitive binding assay: inhibition of 125I-NDP-α-MSH binding to membranes from B16-F10 mouse melanoma cells; conditions: Table 6; 1 μM; mean of triplicate
T1 construct: MC1-R membranes were isolated from B16—F10 mouse melanoma cells; endogenous in cells; host or cells: B16-F10 mouse melanoma cells
Summary of the method: (§1)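 Percent inhibition of 125I-NDP-α-MSH binding, from cpm normalized to 100% specific binding (total minus binding with 1 μM α-MSH). Test compounds were Re-complexed metallopeptides at a chosen concentration; triplicate means for the added peptides.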

MC4-R = target: T2, MC4-R (Homo sapiens, UniProt P32245); assay: Competitive binding assay: inhibition of 125I-NDP-α-MSH binding to HEK-293 membranes with cloned human receptor subtype 4; conditions: Table 6; 1 μM; mean of triplicate
T2 construct: expressed in transfected cells; host or cells: HEK-293
Summary of the method: as §1

hMC5-R = target: T3, hMC5-R (Homo sapiens, UniProt P33032); assay: Competitive binding assay: inhibition of 125I-NDP-α-MSH binding to HEK-293 membranes with cloned human receptor subtype 5; conditions: Table 6; 1 μM; mean of triplicate
T3 construct: expressed in transfected cells; host or cells: HEK-293
Description: (§2) Rhenium-complexed metallopeptides of the formulas given in Table 1 were prepared, with the metallopeptides complexed with rhenium using the rhenium transfer agent ReOCl3(PPh3)2 in the presence of 1,8-Diazabicyclo[5,4,0] undec-7-ene as a base, as disclosed in International Application PCT/US00/16396, filed Jun. 14, 2000, Melanocortin Metallopeptide Constructs, Combinatorial Libraries and Applications, incorporated by reference herein. Affinities of compounds were measured using membranes from HEK-293 cells containing cloned human melanocortin receptor subtypes 3, 4 and 5. MC1-R membranes were isolated from B16—F10 mouse melanoma cells. The assay tube also contained a chosen concentration of the test peptide of this invention, complexed to a rhenium metal ion as indicated, for determining its efficacy in inhibiting the binding of ^125I-NDP-α-MSH to its receptor. Non-specific binding was measured by complete inhibition of binding of ^125I-NDP-α-MSH in the assay with the presence of 1 μM α-MSH. 100% specific binding was defined as the difference in radioactivity (cpm) bound to cell membranes in the absence and presence of 1 μM α-MSH. The cpm obtained in presence of test compounds were normalized with respect to 100% specific binding to determine the percent inhibition of ^125I-NDP-α-MSH binding.
(§3) Peptide sequences set forth in Table 6 were prepared using conventional synthetic means. The resulting sequences were rhenium-complexed to form metallopeptides, with the metallopeptides complexed with rhenium using the rhenium transfer agent ReOCl3(PPh3)2 in the presence of 1,8-Diazabicyclo[5,4,0] undec-7-ene as a base. Percent inhibition was determined as in Example 1 using the Re-complexed metallopeptides, using the same methods as described therein. All measures are means of triplicate determinations.

hMC2-R = target: T4, hMC2-R (Homo sapiens, UniProt P41968); assay: Competitive binding assay of additional compounds, Table 6 hMC2-R; conditions: 1 μM, mean of triplicate
T4 construct: expressed in transfected cells; host or cells: HEK-293
Description: [The source words this procedure for another target and reports this target under the same test.] as §2, §3

T1 sequence (Q01727 whole entry): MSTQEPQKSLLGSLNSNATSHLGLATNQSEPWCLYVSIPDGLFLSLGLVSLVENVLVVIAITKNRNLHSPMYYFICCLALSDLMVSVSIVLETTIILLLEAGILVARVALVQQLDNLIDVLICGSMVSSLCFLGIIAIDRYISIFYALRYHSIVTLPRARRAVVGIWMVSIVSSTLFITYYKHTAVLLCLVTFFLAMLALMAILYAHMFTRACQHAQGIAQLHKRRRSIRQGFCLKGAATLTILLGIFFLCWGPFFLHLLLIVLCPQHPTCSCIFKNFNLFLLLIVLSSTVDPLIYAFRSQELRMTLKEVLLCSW
T2 sequence (P32245 whole entry): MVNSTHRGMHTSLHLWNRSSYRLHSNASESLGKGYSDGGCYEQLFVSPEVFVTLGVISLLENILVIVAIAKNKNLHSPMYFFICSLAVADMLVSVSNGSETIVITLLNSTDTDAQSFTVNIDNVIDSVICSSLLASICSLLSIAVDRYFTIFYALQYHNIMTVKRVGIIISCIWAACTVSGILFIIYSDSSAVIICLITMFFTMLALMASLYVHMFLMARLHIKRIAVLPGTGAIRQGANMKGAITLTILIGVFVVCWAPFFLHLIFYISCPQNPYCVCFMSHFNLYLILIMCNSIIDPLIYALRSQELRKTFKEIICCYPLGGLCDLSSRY
T3 sequence (P33032 whole entry): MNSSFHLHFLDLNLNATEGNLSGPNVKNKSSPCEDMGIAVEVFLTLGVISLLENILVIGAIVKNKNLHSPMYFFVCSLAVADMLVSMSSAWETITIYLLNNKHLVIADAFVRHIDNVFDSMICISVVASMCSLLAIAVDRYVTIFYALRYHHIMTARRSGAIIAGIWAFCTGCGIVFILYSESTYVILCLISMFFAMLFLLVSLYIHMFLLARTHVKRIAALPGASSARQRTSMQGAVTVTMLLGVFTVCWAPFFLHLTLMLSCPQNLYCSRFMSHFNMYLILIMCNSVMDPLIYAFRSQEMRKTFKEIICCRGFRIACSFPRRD
T4 sequence (P41968 whole entry): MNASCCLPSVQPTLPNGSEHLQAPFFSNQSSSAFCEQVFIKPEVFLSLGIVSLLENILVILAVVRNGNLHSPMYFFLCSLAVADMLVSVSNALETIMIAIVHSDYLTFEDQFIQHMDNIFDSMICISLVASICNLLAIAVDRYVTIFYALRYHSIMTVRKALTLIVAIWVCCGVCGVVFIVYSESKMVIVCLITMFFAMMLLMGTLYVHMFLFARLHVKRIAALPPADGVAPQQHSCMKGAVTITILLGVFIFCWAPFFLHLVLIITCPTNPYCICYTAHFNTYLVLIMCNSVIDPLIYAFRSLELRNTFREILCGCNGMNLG

Row | Substance | % Inhibition of Binding MC1-R (MC1-R) | % Inhibition of Binding hMC4-R (MC4-R) | % Inhibition of Binding hMC5-R (hMC5-R) | % Inhibition of Binding hMC2-R (hMC2-R)
1 | 3′-Br Phenyl acetyl-Arg-Arg-D-Phe(4′-CF3)-Cys-Trp-NH2 | 72% | 89% | 99% | 94%
2 | 1-amino-1-cyclohexane carboxyl-D-Phe-Arg-Cys-Trp-NH2 ([Ac6c][dF]RCW-NH2; N-terminus assumed; SMILES N=C(N)NCCC[C@H](NC(=O)[C@@H](Cc1ccccc1)NC(=O)C1(N)CCCCC1)C(=O)N[C@@H](CS)C(=O)N[C@@H](Cc1c[nH]c2ccccc12)C(N)=O) | 92% | 14% | 65% | 0%
3 | Tiq-D-Phe-Arg-Cys-Trp-NH2 (Tiq-[dF]RCW-NH2; also: metal complex) | 53% | 16% | 56% | 3%
4 | D-Nal 1′-D-Phe-Arg-Cys-Trp-NH2 | 22% | 8% | 48% | 0%
5 | 3′-Bromo phenyl acetyl-Arg-Trp-D-Phe(4′-Cl)-Cys-NH2 | 5% | 17% | 21% | 0%
6 | Ac-Nle-Ala-Ala-D-Phe-Arg-Cys-Trp-NH2 (Ac-[Nle]AA[dF]RCW-NH2; not fully specified; printed as Ac-Nle-Ala-Ala-D-Phe-Arg-Cys-Trp-NH2) | 34% | 12% | 20% | 9%
7 | 3′-Bromo phenyl acetyl-Arg-His-D-Phe(4′-Cl)-Cys-NH2 | 47% | 15% | 0% | 11%
8 | 7-amino-Heptanoyl-D-Igl-D-Phe-Arg-Trp-Cys-NH2 ([Ahp][dIgl][dF]RWC-NH2; not fully specified; printed as 7-amino-Heptanoyl-D-Igl-D-Phe-Arg-Trp-Cys-NH2) | 47% | 5% | 35% | 0%
9 | Ac-Nle-Ala-His-D-Phe-Arg-Nal 2′-Cys-NH2 | 99% | 89% | 83% | 40%
10 | 1-amino-1-cyclopentane carboxyl-D-Phe-Arg-Cys-Trp-NH2 ([Ac5c][dF]RCW-NH2; N-terminus assumed; SMILES N=C(N)NCCC[C@H](NC(=O)[C@@H](Cc1ccccc1)NC(=O)C1(N)CCCC1)C(=O)N[C@@H](CS)C(=O)N[C@@H](Cc1c[nH]c2ccccc12)C(N)=O) | 78% | 16% | 60% | 0%
11 | Ac-Leu-His-D-Phe-Arg-Cys-Trp-NH2 ({Ac-Leu-H2N}-[dF]RCW-NH2; not fully specified; printed as Ac-Leu-His-D-Phe-Arg-Cys-Trp-NH2) | 75% | 0% | 31% | 0%
12 | [Igl][dF]RCW-NH2 | 38% and 36% | 14% and 20% | 67% and 64% | 7% and 0%
13 | Nal 1′-D-Phe-Arg-Cys-Trp-NH2 ([1Nal][dF]RCW-NH2; also: metal complex) | 0% | 12% | 45% | 6%

The next lines start with the values.

Row | % Inhibition of Binding MC1-R (MC1-R) | % Inhibition of Binding hMC4-R (MC4-R) | % Inhibition of Binding hMC5-R (hMC5-R) | % Inhibition of Binding hMC2-R (hMC2-R) | Substance
14 | 4% | 38% | 60% | 13% | 3′-Bromo phenyl acetyl-Lys-Ala-D-Phe(3′-Cl)-Cys-Trp-NH2
15 | 0% | 8% | 41% | 1% | D-Igl-D-Nal 2′-Arg-Cys-NH2
16 | 52% | 16% | 0% | 0% | Ac-[Nle]AH[dF]R[dH]C-NH2
17 | 66% | 0% | 44% | 0% | Ac-[Nle]AY[dF]RCW-NH2
18 | 11% | 1% | 16% | 0% | 1-amino-1-cyclohexane carboxyl-D-Phe-Arg-Trp-Cys-NH2 ([Ac6c][dF]RWC-NH2; N-terminus assumed; SMILES N=C(N)NCCC[C@H](NC(=O)[C@@H](Cc1ccccc1)NC(=O)C1(N)CCCCC1)C(=O)N[C@@H](Cc1c[nH]c2ccccc12)C(=O)N[C@@H](CS)C(N)=O)
19 | 14% | 96% | 95% | 69% | NH2(CH2)6CO-Ser(Bzl)-D-Nal 2′-Arg-Trp-Cys-NH2
20 | 3% | 13% | 43% | 0% | D-Nal 1′-D-Phe-Arg-Trp-Cys-NH2
21 | 5% | 3% | 0% | 0% | Ac-Ala-Ala-Ala-D-Phe-Arg-Cys-Trp-NH2 (Ac-AAA[dF]RCW-NH2; not fully specified; printed as Ac-Ala-Ala-Ala-D-Phe-Arg-Cys-Trp-NH2)
22 | 23% | 0% | 14% | 7% | 1-amino-1-cyclopentane carboxyl-D-Phe-Arg-Trp-Cys-NH2 ([Ac5c][dF]RWC-NH2; N-terminus assumed; SMILES N=C(N)NCCC[C@H](NC(=O)[C@@H](Cc1ccccc1)NC(=O)C1(N)CCCC1)C(=O)N[C@@H](Cc1c[nH]c2ccccc12)C(=O)N[C@@H](CS)C(N)=O)
23 | 39% | 0% | 5% | 0% | Amb-D-Phe-Arg-Trp-Cys-NH2
24 | 7% | 0% | 56% | 0% | Naphthlyl-2-acetyl-D-Phe-Arg-Cys-Trp-NH2 ({Acetyl(2-naphthyl)}-[dF]RCW-NH2; also: metal complex)
25 | 0% | 3% | 42% | 0% | Tic-D-Phe(4′-Cl)-Arg-Cys-NH2
26 | 70% | 62% | 36% | 0% | [Igl][dF]RWC-NH2
27 | 61% | 62% | 83% | 49% | 3′-Br Phenyl acetyl-Arg-Arg-D-Phe(3′-Cl)-Cys-Nal 1′-NH2
